Test results reported in patent publication US20150152088A1, “ALKYNYL HETEROAROMATIC COMPOUND AND USE THEREOF” (Nanjing Sanhome Pharmaceutical Co., Ltd., priority 2012, published 2015).

What was measured:
[1] = system: K562 chronic myelogenous leukemia cells; experiment: MTT assay, in vitro inhibitory activity on cells; type: cell-based
Source text: (§1) In this example, MTT assay was used to detect in vitro inhibitory activity of the compounds prepared according to the above examples on the cells. […] AP24534 was purchased from Shanghai Xinkuo Chemical Technology Co., Ltd., China.
(§2) Dimethyl sulfoxide (DMSO) is capable of dissolving formazan in cells, and absorbance value can be measured at a wavelength of 490 nm by an enzyme-linked immunometric meter, which reflects the number of living cells. Within a certain range of the number of cells, the amount of MTT crystals formed is proportional to the number of living cells.
(§3) 1. […] 2. Culturing in a 37° C., 5% CO2 incubator and keeping the cells adhering to the wall of the well. 3. […] 4. Carefully removing the supernatant, gently washing with PBS and discarding the supernatant again. 5. […] 6. Terminating culturing and carefully discarding the medium in each well. 7. Adding 150 μl dimethyl sulfoxide into each well, shaking for 10 minutes at low speed in a shaker, to make crystals fully dissolved. 8. Measuring the absorbance of each well at 490 nm by an enzyme-linked immunometric meter. 9. Calculating IC50 values.

[2] = system: MDA-MB-231 human breast cancer cells; experiment: MTT assay, in vitro inhibitory activity on cells; type: cell-based; conditions: typically 48 hours
Source text: as §1, §2, §3

[3] = system: Ovcar-3 human ovarian cancer cells; experiment: MTT assay, in vitro inhibitory activity on cells; type: cell-based; conditions: typically 48 hours
Source text: as §1, §2, §3

[4] = system: Saos-2 human osteosarcoma cells; experiment: MTT assay, in vitro inhibitory activity on cells; type: cell-based; conditions: typically 48 hours
Source text: as §1, §2, §3

Human ABL1 (T315I) = target: T1, Human ABL1 (T315I) (Homo sapiens, UniProt P00519, T315I); experiment: ABL1 (T315I) kinase activity, [γ-33P] ATP / Abltide radiometric assay; type: biochemical; conditions: ATP 1.0 μM, 120 minutes, room temperature
T1 construct: purchased Millipore Corporation, USA #14-522
Procedure: Kinase activity was determined according to the manufacturer's instructions. Peptide substrate is Abltide ([…]), purchased from Millipore Corporation, USA. Ion exchange chromatography paper P81 was purchased from Whatman Company, UK. [γ-33P] ATP was purchased from Perkin Elmer Company.
[γ-33P] ATP was added at room temperature, with final concentration of 1.0 μM, and the reaction was performed for 120 minutes. 20 μl aliquots were transferred onto the ion exchange chromatography paper P81. The paper was thoroughly washed with a 0.75% phosphoric acid solution three times, and then washed with acetone once. Finally, γ-33P radioactivity was measured.

[5] = Homo sapiens, K562, 48 h, typically 48 hours

`Cc1ccc(C(=O)Nc2ccc(CN3CCC(N(C)C)C3)c(C(F)(F)F)c2)cc1C#Cc1cccc2ncncc12` (stereo in doubt) [Example 19, 3-((quinazolin-5-yl)ethynyl)-4-methyl-(S)—N-[4-((3-(dimethylamino)pyrrolidin-1-yl)methyl)-3-trifluoromethylphenyl]benzamide] gave an IC50 ([1]; typically 48 hours) of 8100 nM.

`Cc1ccc(C(=O)Nc2ccc(CN3CCN(C)CC3)c(C(F)(F)F)c2)cc1C#Cc1cnc2cccnn12` [AP24534, reference compound] was tested, and the IC50 [2] was 420 nM, the IC50 [3] was 1210 nM and the IC50 [4] was 380 nM. For the same molecule, the IC50 ([1]; Homo sapiens, K562, typically 48 hours) was 4800 nM.

`Cc1ccc(C(=O)Nc2ccc(CN3CCN(C)CC3)c(C(F)(F)F)c2)cc1C#Cc1cccc2[nH]nc(N)c12` [Example 1, 3-(3-amino-1H-indazol-4-yl)ethynyl-4-methyl-N-[4-(4-methylpiperazin-1-yl)methyl-3-trifluoromethylphenyl]benzamide] showed an IC50 (Human ABL1 (T315I)) of 6.48 nM and an IC50 [1, 5] of 1870 nM.

Work on `Cc1ccc(C(=O)Nc2ccc(CN3CCN(C)CC3)c(C(F)(F)F)c2)cc1C#Cc1ccc2ncncc2c1` [Example 2, 3-((quinazolin-6-yl)ethynyl)-4-methyl-N-[4-((4-methylpiperazin-1-yl)methyl)-3-trifluoromethylphenyl]benzamide] yielded an IC50 [1, 5] of 3720 nM.

In the case of `Cc1ccc(C(=O)Nc2ccc(CN3CCN(C)CC3)c(C(F)(F)F)c2)cc1C#Cc1cc(F)c2cnc(N)nc2c1` [Example 5, 3-((5-fluoro-2-aminoquinazolin-7-yl)ethynyl)-4-methyl-N-[4-((4-methylpiperazin-1-yl)methyl)-3-trifluoromethylphenyl]benzamide], the IC50 [2] is reported as 6710 nM, the IC50 [3] is reported as 6520 nM and the IC50 [4] is reported as 310 nM. It also gave an IC50 [1, 5] of 2120 nM.

With `CNc1ncc2ccc(C#Cc3cc(C(=O)Nc4ccc(CN5CCN(C)CC5)c(C(F)(F)F)c4)ccc3C)cc2n1` [Example 6, 3-((2-methylaminoquinazolin-7-yl)ethynyl)-4-methyl-N-[4-((4-methylpiperazin-1-yl)methyl)-3-trifluoromethylphenyl]benzamide] the IC50 [2] was 7890 nM, the IC50 [3] was 8260 nM and the IC50 [4] was 2100 nM. It also gave an IC50 [1, 5] of 730 nM.

`CNc1ncc2c(F)cc(C#Cc3cc(C(=O)Nc4ccc(CN5CCN(C)CC5)c(C(F)(F)F)c4)ccc3C)cc2n1` [Example 7, 3-((5-fluoro-2-methylaminoquinazolin-7-yl)ethynyl)-4-methyl-N-[4-((4-methylpiperazin-1-yl)methyl)-3-trifluoromethylphenyl]benzamide] showed an IC50 [2] of 4140 nM, an IC50 [3] of 2350 nM and an IC50 [4] of 4700 nM. The IC50 [1, 5] was 670 nM.

Work on `CC(=O)Nc1ncc2ccc(C#Cc3cc(C(=O)Nc4ccc(CN5CCN(C)CC5)c(C(F)(F)F)c4)ccc3C)cc2n1` [Example 8, 3-((2-acetylaminoquinazolin-7-yl)ethynyl)-4-methyl-N-[4-((4-methylpiperazin-1-yl)methyl)-3-trifluoromethylphenyl]benzamide] yielded an IC50 [1, 5] of 1600 nM.

Work on `CC(=O)Nc1ncc2c(F)cc(C#Cc3cc(C(=O)Nc4ccc(CN5CCN(C)CC5)c(C(F)(F)F)c4)ccc3C)cc2n1` [Example 10, 3-((5-fluoro-2-acetylaminoquinazolin-7-yl)ethynyl)-4-methyl-N-[4-((4-methylpiperazin-1-yl)methyl)-3-trifluoromethylphenyl]benzamide] yielded an IC50 [1, 5] of 6880 nM.

`Cc1ccc(C(=O)Nc2ccc(CN3CCN(C)CC3)c(C(F)(F)F)c2)cc1C#Cc1ccc2cnc(N)nc2c1` [Example 11, 3-((2-aminoquinazolin-7-yl)ethynyl)-4-methyl-N-[4-((4-methylpiperazin-1-yl)methyl)-3-trifluoromethylphenyl]benzamide] was tested, and the IC50 [2] was 2790 nM, the IC50 [3] was 4720 nM and the IC50 [4] was 1790 nM. It also gave an IC50 [1, 5] of 900 nM.

In the case of `CNc1ncnc2cc(C#Cc3cc(C(=O)Nc4ccc(CN5CCN(C)CC5)c(C(F)(F)F)c4)ccc3C)ccc12` [Example 12, 3-((4-methylaminoquinazolin-7-yl)ethynyl)-4-methyl-N-[4-((4-methylpiperazin-1-yl)methyl)-3-trifluoromethylphenyl]benzamide], the IC50 (Human ABL1 (T315I)) is reported as 31.7 nM and the IC50 [1, 5] is reported as 280 nM.

For `CNc1ncnc2cc(C#Cc3cc(C(=O)Nc4ccc(CN5CCN(CCO)CC5)c(C(F)(F)F)c4)ccc3C)ccc12` [Example 14, 3-((4-methylaminoquinazolin-7-yl)ethynyl)-4-methyl-N-[4-((4-(2-hydroxyethyl)piperazin-1-yl)methyl)-3-trifluoromethylphenyl]benzamide], the IC50 [1, 5] was 5680 nM.

`CNc1ncc2ccc(C#Cc3cc(C(=O)Nc4ccc(CN5CCN(CCO)CC5)c(C(F)(F)F)c4)ccc3C)cc2n1` [Example 15, 3-((2-methylaminoquinazolin-7-yl)ethynyl)-4-methyl-N-[4-((4-(2-hydroxyethyl)piperazin-1-yl)methyl)-3-trifluoromethylphenyl]benzamide] was tested, and the IC50 [1, 5] was 2900 nM.

Molecule `Cc1ccc(C(=O)Nc2ccc(CN3CCN(CCO)CC3)c(C(F)(F)F)c2)cc1C#Cc1cccc2ncncc12` [Example 16, 3-((quinazolin-5-yl)ethynyl)-4-methyl-N-[4-((4-(2-hydroxyethyl)piperazin-1-yl)methyl)-3-trifluoromethylphenyl]benzamide] has an IC50 (Human ABL1 (T315I)) of 12.4 nM and an IC50 [1, 5] of 7030 nM.

`Cc1ccc(C(=O)Nc2ccc(CN3CCS(=O)(=O)CC3)c(C(F)(F)F)c2)cc1C#Cc1cccc2ncncc12` [Example 17] gave an IC50 [1, 5] of 8720 nM.

Work on `Cc1ccc(C(=O)Nc2ccc(CN3CC[C@@H](N(C)C)C3)c(C(F)(F)F)c2)cc1C#Cc1cccc2ncncc12` [Example 18, 3-((quinazolin-5-yl)ethynyl)-4-methyl-(R)—N-[4-((3-(dimethylamino)pyrrolidin-1-yl)methyl)-3-trifluoromethylphenyl]benzamide] yielded an IC50 (Human ABL1 (T315I)) of 21.7 nM and an IC50 ([1]; typically 48 hours) of 470 nM.

For `Cc1cn(-c2cc(NC(=O)c3ccc(C)c(C#Cc4cccc5ncncc45)c3)cc(C(F)(F)F)c2)cn1` [Example 20, 3-((quinazolin-5-yl)ethynyl)-4-methyl-N-[3-(4-methyl-1H-imidazol-1-yl)-5-trifluoromethylphenyl]benzamide], the IC50 (Human ABL1 (T315I)) was 43.5 nM and the IC50 [1, 5] was 1140 nM.

For `Cc1ccc(C(=O)Nc2ccc(CN3CCC(N(C)C)CC3)c(C(F)(F)F)c2)cc1C#Cc1ccc2nccnc2c1` [Example 21], the IC50 (Human ABL1 (T315I)) was 24.3 nM and the IC50 [1, 5] was 3310 nM.

For `Cc1ccc(C(=O)Nc2ccc(CN3CCN(C)CC3)c(C(F)(F)F)c2)cc1C#Cc1ccc2c(c1)nc(N)n2C` [Example 22, 3-((2-amino-1-methyl-1H-benzo[d]imidazol-5-yl)ethynyl)-4-methyl-N-[(4-(4-methylpiperazin-1-yl)methyl)-3-trifluoromethylphenyl]benzamide], the IC50 [1, 5] was 8100 nM.

In the case of `Cc1ccc(C(=O)Nc2ccc(CN3CCN(C)CC3)c(C(F)(F)F)c2)cc1C#Cc1ccc2nccnc2c1` [Example 23], the IC50 (Human ABL1 (T315I)) is reported as 6 nM and the IC50 [1, 5] is reported as 2840 nM.

Molecule `Cc1cn(-c2cc(NC(=O)c3ccc(F)c(C#Cc4cccc5ncncc45)c3)cc(C(F)(F)F)c2)cn1` [Example 24, 3-((quinazolin-5-yl)ethynyl)-4-fluoro-N-[3-(4-methyl-1H-imidazol-1-yl)-5-trifluoromethylphenyl]benzamide] has an IC50 [1, 5] of 11400 nM.

`Cc1ccc(C(=O)Nc2ccc(CN3CCN(C)CC3)c(C(F)(F)F)c2)cc1C#Cc1cccc2nc(N)ncc12` [Example 27, 3-((2-aminoquinazolin-5-yl)ethynyl)-4-methyl-N-[(4-(4-methylpiperazin-1-yl)methyl)-3-trifluoromethylphenyl]benzamide] gave an IC50 [1, 5] of 9050 nM.

Work on `CNc1ncc2c(C#Cc3cc(C(=O)Nc4ccc(CN5CCN(C)CC5)c(C(F)(F)F)c4)ccc3C)cccc2n1` [Example 28, 3-((2-methylaminoquinazolin-5-yl)ethynyl)-4-methyl-N-[(4-((4-methyl)piperazin-1-yl)methyl)-3-trifluoromethylphenyl]benzamide] yielded an IC50 [1, 5] of 15500 nM.

With `CNC(=O)c1cc(Oc2ccc(NC(=O)c3ccc(C)c(C#Cc4cccc5ncncc45)c3)cc2)ccn1` [Example 29, 3-((quinazolin-5-yl)ethynyl)-4-methyl-N-[4-(2-(N-methylcarboxamido)pyridinyl-4-oxy)phenyl]benzamide] the IC50 [1, 5] was 24100 nM.

In the case of `CNC(=O)c1cc(Oc2ccc(NC(=O)c3ccc(C)c(C#Cc4ccc5c(NC)ncnc5c4)c3)cc2)ccn1` [Example 30], the IC50 [1, 5] is reported as 89100 nM.

Molecule `Cc1ccc(NC(=O)Nc2ccc(CN3CCN(C)CC3)c(C(F)(F)F)c2)cc1C#Cc1ccc2cncnc2c1` [Example 31] has an IC50 [1, 5] of 1090 nM.

For `Cc1ccc(NC(=O)Nc2ccc(CN3CCN(C)CC3)c(C(F)(F)F)c2)cc1C#Cc1cccc2[nH]nc(N)c12` [Example 32, N-[3-((3-amino-1H-indazol-4-yl)ethynyl)-4-methyl]phenyl-N′-[4-((4-methylpiperazin-1-yl)methyl)-3-trifluoromethylphenyl]urea], the IC50 [2] was 2110 nM, the IC50 [3] was 6970 nM and the IC50 [4] was 2130 nM. The IC50 [1, 5] was 660 nM.
